Data: patent US20170333591A9, “ABSORBENT ARTICLE COMPRISING MALODOR REDUCTION COMPOSITIONS” (The Procter & Gamble Company, priority 2014, published 2017)

Assay: Log of liquid dish neat product liquid-air partition coefficient
Format: physicochemical
Details: for Log of liquid dish neat product liquid-air partition coefficient (Comment Code): code letters K/L of the Comment Code

Compound | Log of liquid dish neat product liquid-air partition coefficient (Comment Code) | Comment Code: Log of liquid dish neat product liquid-air partition coefficient
CC(=O)OC(C)CC/C=C(\C)CCC=C(C)C (stereo not shown) [Material 890] | K (Log of liquid dish neat product liquid-air partition coefficient greater than or equal to 7) | –
C/C(=C/C#N)CCc1ccccc1 [Material 892] | K (Log of liquid dish neat product liquid-air partition coefficient greater than or equal to 7) | –
CC1CCC2(O1)C(C)(C)CCCC2(C)O (stereo not shown) [Material 893] | K (Log of liquid dish neat product liquid-air partition coefficient greater than or equal to 7) | –
C/C(=C\C#N)CCc1ccccc1 [Material 894] | K (Log of liquid dish neat product liquid-air partition coefficient greater than or equal to 7) | –
CC(=CCC1CC=C(C)C1(C)C)CO (stereo not shown) [Material 908] | K (Log of liquid dish neat product liquid-air partition coefficient greater than or equal to 7) | –
CC1=CC2CC(C3OCCO3)C1CC2C(C)C (stereo not shown) [Material 912] | K (Log of liquid dish neat product liquid-air partition coefficient greater than or equal to 7) | –
C=C1CCCC(C)(C)C1C=C(C)C(C)=O (stereo not shown) [Material 913] | K (Log of liquid dish neat product liquid-air partition coefficient greater than or equal to 7) | –
CC(C)c1cccc(C(C)CC=O)c1 (stereo not shown) [Material 914] | K (Log of liquid dish neat product liquid-air partition coefficient greater than or equal to 7) | –
C=CC(C)(CCC=C(C)C)OC(C)OCC (stereo not shown) [Material 916] | K (Log of liquid dish neat product liquid-air partition coefficient greater than or equal to 7) | –
C=CCOC(=O)COC1CCCCC1 [Material 918] | – | K (Log of liquid dish neat product liquid-air partition coefficient greater than or equal to 7)
CCC(=O)OC1CC2CC1C1CC=CC21 (stereo not shown) [Material 919] | K (Log of liquid dish neat product liquid-air partition coefficient greater than or equal to 7) | K (Log of liquid dish neat product liquid-air partition coefficient greater than or equal to 7)
CC1=C2CCC(C)C2CC(C(C)(C)O)CC1 (stereo not shown) [Material 920] | K (Log of liquid dish neat product liquid-air partition coefficient greater than or equal to 7) | –
CC12CCCC(C)(CC1)C2=NO [Material 921] | – | K (Log of liquid dish neat product liquid-air partition coefficient greater than or equal to 7)
C/C=C/c1cc(OC)c(OC)cc1OC [Material 924] | K (Log of liquid dish neat product liquid-air partition coefficient greater than or equal to 7) | –
CC(C)(C=O)CC1=CCC2CC1C2(C)C (stereo not shown) [Material 925] | K (Log of liquid dish neat product liquid-air partition coefficient greater than or equal to 7) | –
CC(=O)c1cc2c(cc1C)C(C)(C)C(C)C2(C)C (stereo not shown) [Material 927] | K (Log of liquid dish neat product liquid-air partition coefficient greater than or equal to 7) | K (Log of liquid dish neat product liquid-air partition coefficient greater than or equal to 7)
Cc1cccc(CCO)c1 [Material 928] | K (Log of liquid dish neat product liquid-air partition coefficient greater than or equal to 7) | –
CCC=CCC=CCCO [Material 929] | K (Log of liquid dish neat product liquid-air partition coefficient greater than or equal to 7) | –
CCCCCCCCCCC=CC=O [Material 930] | K (Log of liquid dish neat product liquid-air partition coefficient greater than or equal to 7) | –
C=C(OC(C)=O)c1ccccc1 [Material 931] | – | K (Log of liquid dish neat product liquid-air partition coefficient greater than or equal to 7)
CC1CCC2(O)C(C)(C)C3CCC2(C)C1C3 (stereo not shown) [Material 933] | K (Log of liquid dish neat product liquid-air partition coefficient greater than or equal to 7) | K (Log of liquid dish neat product liquid-air partition coefficient greater than or equal to 7)
CCCCCC(=O)Oc1ccc(C)cc1 [Material 939] | K (Log of liquid dish neat product liquid-air partition coefficient greater than or equal to 7) | –
CCCCC/C=C/C=C\C(=O)OCC [Material 942] | K (Log of liquid dish neat product liquid-air partition coefficient greater than or equal to 7) | –
N#CC(=C1CCCCC1)c1ccccc1 [Material 945] | K (Log of liquid dish neat product liquid-air partition coefficient greater than or equal to 7) | –
C=C(C)C1CC=C(C=O)CC1 (stereo not shown) [Material 946] | K (Log of liquid dish neat product liquid-air partition coefficient greater than or equal to 7) | –

Compound | Log of liquid dish neat product liquid-air partition coefficient (Comment Code) | Comment Code: Log of liquid dish neat product liquid-air partition coefficient
C=C(C)C1CC=C(COC(C)=O)CC1 (stereo not shown) [Material 947] | K (Log of liquid dish neat product liquid-air partition coefficient greater than or equal to 7) | –
C=C(C)C1CC=C(CO)CC1 (stereo not shown) [Material 948] | K (Log of liquid dish neat product liquid-air partition coefficient greater than or equal to 7) | –
CCCCC/C=C/C=C\C(=O)OCC [Material 951] | K (Log of liquid dish neat product liquid-air partition coefficient greater than or equal to 7) | –
c1ccc(CCOC2CCCCC2)cc1 [Material 953] | K (Log of liquid dish neat product liquid-air partition coefficient greater than or equal to 7) | –
CCC(C)C(=O)OCCc1ccccc1 (stereo not shown) [Material 954] | K (Log of liquid dish neat product liquid-air partition coefficient greater than or equal to 7) | –
OCCc1ccccc1 [Material 955] | K (Log of liquid dish neat product liquid-air partition coefficient greater than or equal to 7) | –
O=COCCc1ccccc1 [Material 956] | – | K (Log of liquid dish neat product liquid-air partition coefficient greater than or equal to 7)
CC(C)C(=O)OCCc1ccccc1 [Material 958] | – | K (Log of liquid dish neat product liquid-air partition coefficient greater than or equal to 7)
C/C=C(\C)C(=O)OCCc1ccccc1 [Material 960] | – | K (Log of liquid dish neat product liquid-air partition coefficient greater than or equal to 7)
O=C(Oc1ccccc1)c1ccccc1 [Material 965] | K (Log of liquid dish neat product liquid-air partition coefficient greater than or equal to 7) | –
C=C(C)C(=O)OCCc1ccccc1 [Material 971] | – | K (Log of liquid dish neat product liquid-air partition coefficient greater than or equal to 7)
CC(C)c1ccc(CC=O)cc1 [Material 977] | – | K (Log of liquid dish neat product liquid-air partition coefficient greater than or equal to 7)
CC(C)(C)C(=O)OC1CC2CC1C1CC=CC21 (stereo not shown) [Material 978] | K (Log of liquid dish neat product liquid-air partition coefficient greater than or equal to 7) | K (Log of liquid dish neat product liquid-air partition coefficient greater than or equal to 7)
CC(C)C1=CCC(C)(O)CC1 (stereo not shown) [Material 982] | K (Log of liquid dish neat product liquid-air partition coefficient greater than or equal to 7) | –
COc1ccc(CC(C)=O)cc1 [Material 983] | – | K (Log of liquid dish neat product liquid-air partition coefficient greater than or equal to 7)
CC1=CCC(/C=C/C(C)(C)C(C)O)C1(C)C (stereo not shown) [Material 985] | K (Log of liquid dish neat product liquid-air partition coefficient greater than or equal to 7) | –
CC(C)=CCCC1=CCC(C)(C=O)CC1 (stereo not shown) [Material 988] | K (Log of liquid dish neat product liquid-air partition coefficient greater than or equal to 7) | –
CC(C)(C)c1ccc(CC=O)cc1 [Material 994] | – | K (Log of liquid dish neat product liquid-air partition coefficient greater than or equal to 7)
CCC(C)(C)C1CCC(O)CC1 (stereo not shown) [Material 995] | – | K (Log of liquid dish neat product liquid-air partition coefficient greater than or equal to 7)
CCC=CCC=CC=CC(=O)OCC [Material 1000] | K (Log of liquid dish neat product liquid-air partition coefficient greater than or equal to 7) | –
CC(=O)CCc1ccc(O)cc1 [Material 1002] | – | K (Log of liquid dish neat product liquid-air partition coefficient greater than or equal to 7)
CC1CC(C)(C)OC(Cc2ccccc2)O1 (stereo not shown) [Material 1003] | K (Log of liquid dish neat product liquid-air partition coefficient greater than or equal to 7) | –
CC1CC(C)(c2ccccc2)CO1 (stereo not shown) [Material 1006] | K (Log of liquid dish neat product liquid-air partition coefficient greater than or equal to 7) | –
CC1=CC[C@@H]2C3CC([C@@H]2C1)[C@@]1(C3)OC1C (stereo partly shown) [Material 1007] | K (Log of liquid dish neat product liquid-air partition coefficient greater than or equal to 7) | K (Log of liquid dish neat product liquid-air partition coefficient greater than or equal to 7)
CC(CO)CCCc1ccccc1 (stereo not shown) [Material 1012] | K (Log of liquid dish neat product liquid-air partition coefficient greater than or equal to 7) | –
